Holding throughout (assay type): biochemical, Gluconobacter oxydans UV-10
The target in assay [1] is T1, L-sorbose dehydrogenase (Gluconobacter oxydans, UniProt Q47944). Put plainly: biochemical. The note with it: for Effect of inhibitor on the enzyme activity (in words): summary of Table 7. Here is the method: Enzyme assay was performed at 25° C. by measuring the decrease of absorbance at 600 nm of DCIP spectrophotometrically. One unit of enzyme activity was defined as the amount of enzyme which catalyzed the reduction of 1 μmole of DCIP per minute. […] The basal reaction mixture is shown below. The mixture was prepared just before the assay.
T1 sequence (Q47944 whole entry): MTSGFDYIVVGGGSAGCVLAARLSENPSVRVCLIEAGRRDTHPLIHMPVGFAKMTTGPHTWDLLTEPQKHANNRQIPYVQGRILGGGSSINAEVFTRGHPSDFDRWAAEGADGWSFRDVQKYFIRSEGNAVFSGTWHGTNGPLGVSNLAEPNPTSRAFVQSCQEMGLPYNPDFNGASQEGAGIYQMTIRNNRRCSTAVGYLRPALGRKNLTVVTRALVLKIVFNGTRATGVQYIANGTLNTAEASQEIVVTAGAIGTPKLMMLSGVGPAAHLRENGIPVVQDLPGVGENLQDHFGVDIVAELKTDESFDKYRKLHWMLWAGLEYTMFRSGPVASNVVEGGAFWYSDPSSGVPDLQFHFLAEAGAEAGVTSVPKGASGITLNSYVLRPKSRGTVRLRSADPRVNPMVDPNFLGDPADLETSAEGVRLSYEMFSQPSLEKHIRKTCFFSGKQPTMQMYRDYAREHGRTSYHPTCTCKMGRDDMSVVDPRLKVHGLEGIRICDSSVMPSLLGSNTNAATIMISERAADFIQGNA
(§1) A cuvette with 1 cm light path contained 0.4 ml of basal mixture, 0.1 ml of 1M L-sorbose, enzyme solution, and water in a final volume of 0.51 ml. A reference cuvette contains all components except the substrate. The reaction was initiated by the addition of the substrate. Enzyme activity was measured as the initial reduction rate of DCIP.

The target in assay [2] is T1, L-sorbose dehydrogenase. Put plainly: Effect of metal ions on the enzyme activity. Particulars: for Effect of metal ion on the enzyme activity (in words): summary of Table 6. Here is the method: (§2) Enzyme assay was performed at 25° C. by measuring the decrease of absorbance at 600 nm of DCIP spectrophotometrically. One unit of enzyme activity was defined as the amount of enzyme which catalyzed the reduction of 1 μmole of DCIP per minute. The extinction coefficient of DCIP at pH 7.0 was taken as 14.5 mM^-1. The basal reaction mixture is shown below. The mixture was prepared just before the assay.
as §1
Using the assay procedure described under (1) above, the effect of various metal ions on the enzyme activity was examined. Co^2+ and Fe^3+ were stimulative and Cu^2+ was inhibitory.

The target in assay [3] is T1, L-sorbose dehydrogenase. The note with it: 0.1 ml of 1M substrate solution instead of L-sorbose, DCIP, 25° C., pH 7.0. As for the experimental part: as §2, §1
Substrate specificity of the enzyme was determined using the same enzyme assay method as described in the above (1) except that 0.1 ml of each of the various substrate solutions (1M) was used instead of L-sorbose.

Assay [4] addresses T1, L-sorbose dehydrogenase. Description: Measurement of the Km value for L-sorbose. The note with it: L-sorbose 0.5 mM to 320 mM. Here is the method: as §2, §1
In the procedure described under (2) above, the velocities of oxidising reactions with varying concentrations of L-sorbose from 0.5 mM to 320 mM were measured to determine the Km value for L-sorbose. The maximum reaction velocity was found at the substrate concentration of about 200 mM. Apparent Michaelis constant (Km) was calculated to be 102±10 mM with DCIP as an electron acceptor.

As usually defined, the inhibition is the drop in the measured response relative to a control, in per cent. Read a low inhibition as little suppression.

For `[F-].[Na+]` [Sodium Fluoride], the “Inhibition (%)” value at L-sorbose dehydrogenase [1] (inhibitor 1.85 mM) was determined as 10.3%; at L-sorbose dehydrogenase [1] (inhibitor 4.24 mM), 10.3%; on L-sorbose dehydrogenase [1] (inhibitor 9.37 mM), 22.1%. The “Effect of inhibitor on the enzyme activity (in words)” value (“Effect of inhibitor” below) at L-sorbose dehydrogenase [1] is on record as “inhibited the enzyme activity partially”.

On to `[Fe+3]` [Fe^3+], for which the “Effect of metal ion on the enzyme activity (in words)” value (“Effect of metal ion” below) at L-sorbose dehydrogenase [2] is reported as “stimulative”.

As for `C=C[C@H]1C[N@@]2CC[C@H]1C[C@H]2[C@H](O)c1ccnc2ccc(OC)cc12` [Quinine], at L-sorbose dehydrogenase [1], the inhibition at 1850 µM stood at 0%, the inhibition at 4240 µM is 30.5% and the “Effect of inhibitor” value was “inhibited the enzyme activity partially”.

Regarding `O.O=S(=O)([O-])[O-].[Mn+2]` [MnSO4 · H2 O], the “Relative activity (%)” value on L-sorbose dehydrogenase [2] (metal 0.4 mM) was found to be 100%.

Turning to `[Ca+2].[Cl-].[Cl-]` [CaCl2], the “Relative activity (%)” value at L-sorbose dehydrogenase [2] (metal 0.4 mM) and at L-sorbose dehydrogenase [2] (metal 0.8 mM) was 100% throughout.

In the case of `O=C([O-])[C@@H](O)[C@H](O)[C@@H](O)[C@H](O)CO.O=C([O-])[C@@H](O)[C@H](O)[C@@H](O)[C@H](O)CO.[Ca+2]` [Ca-Idonate], the “Relative enzyme activity (%)” value on L-sorbose dehydrogenase [3] is 0%.

Take `O.O.O.O.O.O.O.O=[As]([O-])([O-])O.[Na+].[Na+]` [Na2 HAs · O4 · 7H2 O]: the “Inhibition (%)” value on L-sorbose dehydrogenase [1] (inhibitor 1.85 mM) and on L-sorbose dehydrogenase [1] (inhibitor 4.24 mM) was 0% throughout.

In the case of `O.O.O.O.O.O.[Cl-].[Cl-].[Mg+2]` [MgCl2 · 6H2 O], the “Relative activity (%)” value on L-sorbose dehydrogenase [2] (metal 0.8 mM) was 83.3%.

On L-sorbose dehydrogenase [1], `[N-]=[N+]=[N-]` [Sodium Azide] came in with an inhibition at 1850 µM of 0% and an inhibition at 4240 µM of 0%.

On to Fe(SO4)3 .multidot. xH2 O, for which the “Relative activity (%)” value at L-sorbose dehydrogenase [2] (metal 0.4 mM) was 121.3%; on L-sorbose dehydrogenase [2] (metal 0.9 mM), 106.4%.

Consider TiCl, for which the “Relative activity (%)” value on L-sorbose dehydrogenase [2] (metal 0.4 mM), at L-sorbose dehydrogenase [2] (metal 0.8 mM) and on L-sorbose dehydrogenase [2] (metal 1.8 mM) was 100% in each case.

For `O.O.[Cl][Cu][Cl]` [CuCl2 · 2H2 O], the “Relative activity (%)” value at L-sorbose dehydrogenase [2] (metal 0.4 mM) was 0%.

Consider `O.O.O.O.O.O.O=S(=O)([O-])[O-].[Ni+2]` [NiSO4 · 6H2 O], for which the “Relative activity (%)” value at L-sorbose dehydrogenase [2] (metal 0.4 mM) and at L-sorbose dehydrogenase [2] (metal 0.9 mM) was 100% throughout.

For `O.O.O.O.[Cl][Mn][Cl]` [MnCl2 · 4H2 O], the entries for the “Relative activity (%)” value at L-sorbose dehydrogenase [2] (metal 0.4 mM) and at L-sorbose dehydrogenase [2] (metal 0.9 mM) were 100% and 98.3%, respectively.

At L-sorbose dehydrogenase [1], `O=C(O)CN(CCN(CC(=O)O)CC(=O)O)CC(=O)O` [EDTA] had an inhibition at 940 µM of 0% and an inhibition at 5200 µM of 13.3%.

In the case of `O=S(=O)([O-])[O-].[Cu+2]` [CuSO4], at L-sorbose dehydrogenase [2] (metal 0.8 mM), the “Relative activity (%)” value came to 0%.

Consider `O.O.O.O.O.O.[Cl-].[Cl-].[Co+2]` [CoC1 · 6H2O], for which the “Relative activity (%)” value on L-sorbose dehydrogenase [2] (metal 0.4 mM) was 109.2%; on L-sorbose dehydrogenase [2] (metal 0.8 mM) it was 118.4%.

At L-sorbose dehydrogenase [1], `CCN1C(=O)C=CC1=O` [N-Ethyl-maleimide] displayed an inhibition at 1850 µM of 0% and an inhibition at 4240 µM of 0%.

Consider `O.O=[N+]([O-])[O-].O=[N+]([O-])[O-].[Cu+2]` [Cu(NO3)2 · H2 O], for which, on L-sorbose dehydrogenase [2] (metal 0.3 mM), the “Relative activity (%)” value amounted to 2.27%.

In the case of `O=C(O)CI` [Mono-Iodo acetate], on L-sorbose dehydrogenase [1], the inhibition at 1850 µM came out at 0%, at 4240 µM the inhibition was 34.6%, at 9370 µM the inhibition was 68.5% and the “Effect of inhibitor” value was “inhibited the enzyme activity partially”.

`O=C(CO)[C@@H](O)[C@H](O)[C@@H](O)CO` [Sorbose, L-sorbose]: the “Substrate concentration of maximum reaction velocity” value at L-sorbose dehydrogenase [4] is given as “about 200 mM”.

On to `[Co+2]` [Co^2+], for which the “Effect of metal ion” value on L-sorbose dehydrogenase [2] is listed as “stimulative”.

Regarding `O.O.O.O.O.O.O.O=S(=O)([O-])[O-].[Zn+2]` [ZnSO4 · 7H2 O], the “Relative activity (%)” value at L-sorbose dehydrogenase [2] (metal 0.4 mM) and on L-sorbose dehydrogenase [2] (metal 0.9 mM) was 100% throughout.

`O=C(O)CF` [Sodium Fluoro acetate]: at L-sorbose dehydrogenase [1], the inhibition at 1850 µM was 0%, 4240 µM produced 8.6% inhibition, 9370 µM produced 26.5% inhibition and the “Effect of inhibitor” value is “inhibited the enzyme activity partially”.

Turning to `O.O.O.O.O.O=S(=O)([O-])[O-].[Cu+2]` [CuSO4 · 5H2 O], the “Relative activity (%)” value at L-sorbose dehydrogenase [2] (metal 0.08 mM) stood at 30.9%.

Turning to `O.O.O.O.O.O.O.O=S(=O)([O-])[O-].[Mg+2]` [MgSO4 · 7H2 O], the “Relative activity (%)” value at L-sorbose dehydrogenase [2] (metal 0.4 mM) and at L-sorbose dehydrogenase [2] (metal 0.8 mM) was 100% throughout.

Consider `O=C(O)c1cc[c]([Hg][Cl])cc1` [PCMB, p-chloro-mercuri-benzoate], for which the “Inhibition (%)” value on L-sorbose dehydrogenase [1] (inhibitor 0.02 mM), at L-sorbose dehydrogenase [1] (inhibitor 0.04 mM) and at L-sorbose dehydrogenase [1] (inhibitor 0.17 mM) was 0% in each case.

With `[Cu+2]` [Cu^2+], on L-sorbose dehydrogenase [2], the “Effect of metal ion” value is reported as “inhibitory”.

For `O.O.[Na+].[Na+].[O]=[Mo](=[O])([O-])[O-]` [Na2 MoO4 · 2H2 O], the “Relative activity (%)” value is reported as 86.1% at L-sorbose dehydrogenase [2] (metal 0.3 mM) and 69.6% at L-sorbose dehydrogenase [2] (metal 1.06 mM).

(Values after US4916069A, “Enzyme and process for producing the same” (priority 1986, dated 1990).)
